Results from paper PMC11944670, “Reshaping [^99mTc]Tc-DT11 to DT14D Tagged with Trivalent Radiometals for NTS1R-Positive Cancer Theranostics” (Pharmaceutics, 2025).
Residues, ends and D or L forms follow the SMILES beside them. *: point of attachment. DOTA = O=C(O)CN1CCN(CC(=O)O)CCN(CC(=O)*)CCN(CC(=O)O)CC1; X1 = Cc1ccc(CCCC(=O)NCCOCCOCCOCCOCC(=O)*)cc1; βAla = NCCC(=O)O

Test: in vivo
Parameters: species or system mice
Settings: male, SCID, mouse, iv, total radioactivity
Experimental: The distribution of [^67Ga]Ga/[^111In]In/[^177Lu]Lu-DT14D was investigated in male severe combined immunodeficiency (SCID) mice (49 mice in total, 6 weeks of age on arrival date, 22 ± 4 g, NCSR “Demokritos” Animal House, Athens, Greece) bearing NTS1R-positive AsPC-1 xenografts in their flanks. For xenograft induction, suspensions of freshly harvested AsPC-1 cells (5 × 10^6 cells in 150 µL sterile PBS) were subcutaneously injected into the mice’s flanks. The animals were kept under aseptic conditions and 4 weeks later developed well palpable masses at the inoculation sites (100 ± 50 mg) and biodistribution was conducted. On the day of the experiment, the animals received a bolus (100 μL, in vehicle: saline/EtOH 9/1 v/v) containing the radioligand via the tail vein. The following groups of four animals per time point, per treatment, were included per radioligand (the 4 h block groups comprised 3 animals instead) including the respective (radio)ligand amounts injected: i. 78–91 kBq [^67Ga]Ga-DT14D corresponding to 7–17 pmol DT14D at 1 and 4 h pi plus 4 h block (coinjection with 100 µg NT); ii. 74–92 kBq [^111In]In-DT14D corresponding to 20–25 pmol at 4 h (controls), 4 h pi (Entresto®; animals receiving a slurry of 12 mg/200 µL Entresto® oral gavage 30 min in advance) and 4 h block (coinjection with 100 µg NT); 24 h pi (including both controls and Entresto® mice groups); and iii. 730 kBq [^177Lu]Lu-DT14D corresponding to 40 pmol DT14D at 4, 24, 48, and 72 h pi plus 4 h block (co-injection with 100 µg NT). The animals were euthanized at predetermined time intervals, dissected and blood samples, organs of interest, and tumors were collected, weighed, and counted in the gamma counter. Biodistribution data were calculated as percent of the injected activity per gram tissue (%IA/g) with the aid of suitable standards of the administered activity. Results as the mean %IA/g values ± sd were obtained and statistical analysis was performed with PRISM^TM GraphPad—10.2 Software (San Diego, CA/USA), applying 2-way ANOVA with Tukey’s post hoc analysis, or, in the case of two variables, Šídák’s multiple comparisons test was adopted; differences with p < 0.05 were considered as statistically significant.

Q: What does the source list for `CC[C@H](C)[C@H](NC(=O)[C@H](Cc1ccc(O)cc1)NC(=O)[C@@H]1CCCN1C(=O)[C@H](CCCNC(=N)N)NC(=O)[C@H](CCCNC(=N)N)NC(=O)[C@H](CCCCNC(=O)COCCOCCOCCOCCNC(=O)CCCc1ccc(C)cc1)NC(=O)CCNC(=O)CCNC(=O)CCNC(=O)CN1CCN(CC(=O)O)CCN(CC(=O)O)CCN(CC(=O)O)CC1)C(=O)N[C@@H](CC(C)C)C(=O)O` [[^67Ga]Ga-DT14D, metal not drawn] ({DOTA-βAla-βAla-βAla}-K(X1)RRPYIL-OH)?
A: tissue uptake at 1 h (Biodistribution, AsPC-1 Tumor): 11.4 ± 1.25 %ID/g; tissue uptake at 1 h (Biodistribution, Blood): 9.52 ± 0.76 %ID/g; tissue uptake at 1 h (Biodistribution, Femur): 2.24 ± 0.23 %ID/g; tissue uptake at 1 h (Biodistribution, Heart): 2.86 ± 0.16 %ID/g; tissue uptake at 1 h (Biodistribution, Intestines): 2.81 ± 0.53 %ID/g; tissue uptake at 1 h (Biodistribution, Kidneys): 7.1 ± 1.12 %ID/g; tissue uptake at 1 h (Biodistribution, Liver): 3.74 ± 0.37 %ID/g; tissue uptake at 1 h (Biodistribution, Lungs): 4.31 ± 0.28 %ID/g; tissue uptake at 1 h (Biodistribution, Muscle): 1.14 ± 0.15 %ID/g; tissue uptake at 1 h (Biodistribution, Pancreas): 1.41 ± 0.12 %ID/g; tissue uptake at 1 h (Biodistribution, Spleen): 2.86 ± 0.33 %ID/g; tissue uptake at 1 h (Biodistribution, Stomach): 0.97 ± 0.27 %ID/g; tissue uptake at 4 h (Biodistribution, Stomach): 0.45 ± 0.08 %ID/g; tissue to tissue ratio at 1 h (Tumor/Blood ratio): 1.2 ± 0.06; tissue to tissue ratio at 1 h (Tumor/Heart ratio): 3.99 ± 0.24; tissue to tissue ratio at 1 h (Tumor/Intestines ratio): 4.12 ± 0.52; tissue to tissue ratio at 1 h (Tumor/Kidneys ratio): 1.62 ± 0.13; tissue to tissue ratio at 4 h (Tumor/Kidneys ratio): 1.15 ± 0.12; tissue to tissue ratio at 1 h (Tumor/Liver ratio): 3.05 ± 0.19; tissue to tissue ratio at 1 h (Tumor/Lungs ratio): 2.64 ± 0.15; tissue to tissue ratio at 4 h (Tumor/Lungs ratio): 3.28 ± 0.21; tissue to tissue ratio at 1 h (Tumor/Muscle ratio): 10.1 ± 1.09; tissue to tissue ratio at 1 h (Tumor/Pancreas ratio): 8.09 ± 0.24; tissue to tissue ratio at 1 h (Tumor/Spleen ratio): 4 ± 0.08; tissue to tissue ratio at 1 h (Tumor/Stomach ratio): 12.2 ± 2.71; tissue to tissue ratio at 4 h (Tumor/Stomach ratio): 9.96 ± 1.68
